Results taken from patent US6864251B2, “Treatment of LTB4-mediated inflammatory disorders with optically-pure (R)-2,3-benzodiazepines” (Vela Pharmaceuticals, Inc., priority 2002, dated 2005).
pKi: −log10 of the molar value.

Key:
DSS-induced colitis = assay: Dextran sulfate sodium induced colitis: mouse model of inflammatory bowel disease; type: in vivo, Swiss Webster mice; settings: for Mean colon length CM ± SEM / Mean weight ± SEM, Day 0 / % weight change ± SEM, Day 8 / Mean weight ± SEM, Day 8 / % weight change ± SEM, Day 9 / Mean weight ± SEM, Day 9 / % weight change ± SEM, Day 10 / Mean weight ± SEM, Day 10 / Mean DAI* ± SEM / inhibition at 16 mg/kg / inhibition at 32 mg/kg / inhibition at 64 mg/kg / % of normal length: DSS 5%; for Mean DAI ± SEM: DSS 5% in tap water; for Mean DAI* ± SEM: DAI without weight loss parameter; for inhibition at 16 mg/kg / inhibition at 32 mg/kg / inhibition at 64 mg/kg: Mus musculus, read-out: Colon shortening inhib. %; for % of normal length: colon length
Experimental: In this model of colitis, an acute inflammation of the colon was produced by administration of dextran sulfate sodium (DSS) as a 5% solution in tap water. This colitis was characterized by histological events and an influx of neutrophils, macrophages and mediators of inflammation similar to those observed with human inflammatory bowel diseases. […] The following study was conducted in accordance with protocols of Okayasu et al., Gastroenterology, 98:694-702, 1990.
One hundred ten test animals (female, 6 week old Swiss Webster mice, 18-30 g) were divided into ten groups, selected to eliminate any statistical differences in mean group weight.
Each animal was dosed daily (IP) with either a test substance or vehicle, starting on Day 0. Beginning on Day 1, acute colon inflammation was induced by the administration ad libitum in drinking water of dextran sulfate sodium (DSS) as a 5% solution in tap water (10 mL/mouse/day for 5-6 days), with no other fluid source for animals in the DSS arm of the study. Filtered tap water was available ad libitum except for animals receiving 5% DSS as the sole source of fluid. After four days, signs of acute disease occured with the loss of weight, diarrhea and bloody stools. Histological changes included initial shortening of the crypts, then areas of separation of the crypts and the muscularis mucosae in the absence of destructive inflammatory filtrate. After five days, pathological changes became confluent with the appearance of erosions and early hyperplastic epithelium. Inflammation scores were high with neutrophils, lymphocytes, and plasma cells in the lamina propria but sparing the epithelium.
Test compounds were administered intraperitoneally (IP). Test compounds given during this period were evaluated for prophylactic activity and test compounds given after the disease state was established were evaluated for therapeutic activity.
Test animals were weighed daily from Day 0 to Day 8, or until completion of the study. The total duration of the study with DSS arm of the study was varied depending on the time progress of colitis. The condition of the test animals and consistency of stools was noted.
At the conclusion of the study, test animals were euthanized (CO2), a midline incision was made and a stool sample was obtained. The sample was placed on a slide and tested for occult blood (Quic-Cult™, Laboratory Diagnostics Co., Morganville, N.J.). Occult blood was determined by placing two drops of the reagent onto the sample and observing any color change. Occult blood presence was graded using a scoring protocol assigning a score of 0 for no color; 1 for a very light blue color (+/−) forming in >30 seconds; 2 for a blue color developing in 30 seconds or more (+); 3 for a change in color occurring in less than 30 seconds (++); and 4 for gross blood observable on the slide. The colon was gently stretched and the length from the colon-cecal junction to the end of the distal rectum was measured to the nearest 0.1 cm.
The scores for each test animal were added and then divided by three to give a DAI score for each animal.

LTB4 receptor = LTB4 receptor (Cavia porcellus, UniProt H0VYV8); assay: LTB4 binding assay, displacement of [3H]LTB4, guinea pig spleen membrane
Chain of LTB4 receptor (H0VYV8 1-348): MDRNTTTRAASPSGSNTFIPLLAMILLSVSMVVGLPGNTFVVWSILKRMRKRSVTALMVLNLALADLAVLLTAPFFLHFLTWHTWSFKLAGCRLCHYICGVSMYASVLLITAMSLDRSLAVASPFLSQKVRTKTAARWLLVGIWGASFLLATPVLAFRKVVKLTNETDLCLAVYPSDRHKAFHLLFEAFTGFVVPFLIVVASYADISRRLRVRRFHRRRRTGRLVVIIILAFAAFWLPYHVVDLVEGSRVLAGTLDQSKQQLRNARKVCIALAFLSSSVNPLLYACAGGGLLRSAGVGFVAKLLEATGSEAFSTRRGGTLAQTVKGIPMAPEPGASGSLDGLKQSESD
Experimental: Reactions were carried out in a phosphate buffer (pH 7.4) containing NaCl, MgCl2, EDTA, and bacitracin. The reaction volume of 150 μL containing 1.0 mg/mL of the Guinea pig spleen membrane preparation and 1 nM [^3H]LTB4, with or without a competitor, was incubated at 0-4° C. for 2 hours. Competitors included 2,3-benzodiazepines, and LTB4 as a control. The reaction was terminated by rapid vacuum filtration onto glass fiber filters. The filter was washed with cold buffer, dried and placed in a scintillation vial. Radioactivity trapped onto the filters was determined and compared to control values in order to ascertain any interactions of the test compound with the LTB4 binding site.

Structure (SMILES) | Mean colon length CM ± SEM (DSS-induced colitis; 16 mg/kg IP daily) | Mean DAI ± SEM (DSS-induced colitis; 16 mg/kg IP daily) | Mean weight ± SEM, Day 0 (DSS-induced colitis; 16 mg/kg IP daily) | % weight change ± SEM, Day 8 (DSS-induced colitis; 16 mg/kg IP daily) | Mean weight ± SEM, Day 8 (DSS-induced colitis; 16 mg/kg IP daily) | % weight change ± SEM, Day 9 (DSS-induced colitis; 16 mg/kg IP daily) | Mean weight ± SEM, Day 9 (DSS-induced colitis; 16 mg/kg IP daily) | % weight change ± SEM, Day 10 (DSS-induced colitis; 16 mg/kg IP daily) | Mean weight ± SEM, Day 10 (DSS-induced colitis; 16 mg/kg IP daily) | Mean colon length CM ± SEM (DSS-induced colitis; 32 mg/kg IP daily) | Mean DAI ± SEM (DSS-induced colitis; 32 mg/kg IP daily) | Mean weight ± SEM, Day 0 (DSS-induced colitis; 32 mg/kg IP daily) | % weight change ± SEM, Day 8 (DSS-induced colitis; 32 mg/kg IP daily) | Mean weight ± SEM, Day 8 (DSS-induced colitis; 32 mg/kg IP daily) | % weight change ± SEM, Day 9 (DSS-induced colitis; 32 mg/kg IP daily) | Mean weight ± SEM, Day 9 (DSS-induced colitis; 32 mg/kg IP daily) | % weight change ± SEM, Day 10 (DSS-induced colitis; 32 mg/kg IP daily) | Mean weight ± SEM, Day 10 (DSS-induced colitis; 32 mg/kg IP daily) | Mean colon length CM ± SEM (DSS-induced colitis; 64 mg/kg IP daily) | Mean DAI ± SEM (DSS-induced colitis; 64 mg/kg IP daily) | also measured
CC[C@H]1C(C)=NN=C(c2ccc(OC)c(OC)c2)c2cc(OC)c(OC)cc21 [(R)-tofisopam, (R)-1-(3,4-dimethoxyphenyl)-4-methyl-5-ethyl-7,8-dimethoxy-5H-2,3-benzodiazepine] | 9.0 ± 0.28 CM | 2.22 ± 0.34 | 26.1 ± 0.5 g | 0.0 ± 1.4% | 26.1 ± 0.6 g | 3.3 ± 1.8% | 25.2 ± 0.6 g | 5.4 ± 3.4% | 24.7 ± 1.0 g | 8.9 ± 0.41 CM | 2.33 ± 0.28 | 25.0 ± 0.4 g | 0.8 ± 1.6% | 26.2 ± 0.4 g | 1.9 ± 2.1% | 25.5 ± 0.6 g | 4.4 ± 2.1% | 24.6 ± 0.6 g | 9.8 ± 0.35 CM | 1.73 ± 0.27^1 | Protection from the LTB4-mediated inflammatory responses to DSS-induced colitis (DSS-induced colitis; 64 mg per kg, based on colon length and DAI): significant protection; Mean weight ± SEM, Day 0 (DSS-induced colitis; 64 mg/kg IP daily): 26.2 ± 0.5 g; % weight change ± SEM, Day 8 (DSS-induced colitis; 64 mg/kg IP daily): 0.1 ± 1.9%; Mean weight ± SEM, Day 8 (DSS-induced colitis; 64 mg/kg IP daily): 26.2 ± 0.5 g; % weight change ± SEM, Day 9 (DSS-induced colitis; 64 mg/kg IP daily): 2.9 ± 1.9%; Mean weight ± SEM, Day 9 (DSS-induced colitis; 64 mg/kg IP daily): 25.4 ± 0.5 g; % weight change ± SEM, Day 10 (DSS-induced colitis; 64 mg/kg IP daily): 2.8 ± 2.5%; Mean weight ± SEM, Day 10 (DSS-induced colitis; 64 mg/kg IP daily): 25.4 ± 0.5 g; Mean DAI* ± SEM (DSS-induced colitis; 16 mg/kg IP daily): 2.61 ± 0.37; Mean DAI* ± SEM (DSS-induced colitis; 32 mg/kg IP daily): 2.75 ± 0.26; Mean DAI* ± SEM (DSS-induced colitis; 64 mg/kg IP daily): 2.20 ± 0.26^1; inhibition at 16 mg/kg (DSS-induced colitis; 16 mg/kg IP daily): 24%; inhibition at 32 mg/kg (DSS-induced colitis; 32 mg/kg IP daily): 22%; inhibition at 64 mg/kg (DSS-induced colitis; 64 mg/kg IP daily): 41%; % of normal length (DSS-induced colitis; 16 mg/kg IP daily): 72.4%; % of normal length (DSS-induced colitis; 32 mg/kg IP daily): 71.3%; % of normal length (DSS-induced colitis; 64 mg/kg IP daily): 78.5%; pKi (LTB4 receptor): 6.35
CCC1C(C)=NN=C(c2ccc(OC)c(OC)c2)c2cc(OC)c(OC)cc21 (racemic) [Racemic tofisopam, Racemic-1-(3,4-dimethoxyphenyl)-4-methyl-5-ethyl-7,8-dimethoxy-5H-2,3-benzodiazepine] | 8.2 ± 0.32 CM | 2.59 ± 0.27 | 25.9 ± 0.4 g | 3.1 ± 1.5% | 25.1 ± 0.6 g | 7.4 ± 2.5% | 24.0 ± 0.8 g | 13.3 ± 3.1% | 22.5 ± 1.0 g | 8.3 ± 0.11 CM | 2.37 ± 0.33 | 26.1 ± 0.4 g | 1.8 ± 1.5% | 25.6 ± 0.4 g | 5.3 ± 2.0% | 24.7 ± 0.6 g | 8.0 ± 2.4% | 24.0 ± 0.7 g | 8.2 ± 0.18 CM | 2.87 ± 0.31 | Mean weight ± SEM, Day 0 (DSS-induced colitis; 64 mg/kg IP daily): 25.8 ± 0.3 g; % weight change ± SEM, Day 8 (DSS-induced colitis; 64 mg/kg IP daily): 1.2 ± 2.1%; Mean weight ± SEM, Day 8 (DSS-induced colitis; 64 mg/kg IP daily): 25.5 ± 0.7 g; % weight change ± SEM, Day 9 (DSS-induced colitis; 64 mg/kg IP daily): 5.1 ± 2.5%; Mean weight ± SEM, Day 9 (DSS-induced colitis; 64 mg/kg IP daily): 24.5 ± 0.8 g; % weight change ± SEM, Day 10 (DSS-induced colitis; 64 mg/kg IP daily): 8.9 ± 3.1%; Mean weight ± SEM, Day 10 (DSS-induced colitis; 64 mg/kg IP daily): 23.5 ± 0.9 g; Mean DAI* ± SEM (DSS-induced colitis; 16 mg/kg IP daily): 2.61 ± 0.30; Mean DAI* ± SEM (DSS-induced colitis; 32 mg/kg IP daily): 2.65 ± 0.28; Mean DAI* ± SEM (DSS-induced colitis; 64 mg/kg IP daily): 3.25 ± 0.26; inhibition at 16 mg/kg (DSS-induced colitis; 16 mg/kg IP daily): 7%; inhibition at 32 mg/kg (DSS-induced colitis; 32 mg/kg IP daily): 9%; inhibition at 64 mg/kg (DSS-induced colitis; 64 mg/kg IP daily): 7%; % of normal length (DSS-induced colitis; 16 mg/kg IP daily): 65.4%; % of normal length (DSS-induced colitis; 32 mg/kg IP daily): 66.7%; % of normal length (DSS-induced colitis; 64 mg/kg IP daily): 65.5%; pKi (LTB4 receptor): 5.34
